Laboratory results: patent publication US9937192B2, “Combination therapy to treat mycobacterium diseases” (priority 2012, dated 2018)
Counter-ions that a name gives are not always drawn. Like-named read-outs stand apart in the source and are kept apart here.

Assays:
[1] = tested on: nonreplicating M. tuberculosis; test: Low-Oxygen-Recovery Assay (LORA) MIC; format: cell-based; settings: Mycobacterium tuberculosis, read-out: LORA MIC
Description: MIC Determination in the Low-Oxygen-Recovery Assay (LORA) for Nonreplicating M. tuberculosis
Screening for new antimicrobial agents is routinely conducted only against actively replicating bacteria. However, it is now widely accepted that a physiological state of non-replicating persistence (NRP) is responsible for antimicrobial tolerance in many bacterial infections. In tuberculosis, the key to shortening the 6-month regimen lies in targeting this NRP subpopulation. […] Cho S H, Want S, Wan B, Hwang C H, Pauli G F, Franzblau S G; “Low-Oxygen-Recovery Assay for High-Throughput Screening of Compounds against Nonreplicating Mycobacterium tuberculosis” Antimicrob Agents Chemother. 2007 April; 51(4): 1380-1385 doi: 10.1128/AAC.00055-06.

M. tuberculosis Erdman = test: MBC assay, log killing reduction in CFU over a one month period of incubation (Table 35); format: cell-based; settings: for Log Reduction (cfu): Compound 23A at 4×MIC
M. avium = test: MIC in bacterial broth culture (7H9 with ADC, visual or resazurin); format: cell-based; settings: Table 31, duplicate values
[2] = tested on: Non-Replicating (NRP) M. tuberculosis H37Ra; test: Non-replicating (NRP) M. tuberculosis H37Ra (luciferase) culture assay; format: cell-based; settings: Mycobacterium tuberculosis, 336 h, read on day 14
M. smegmatis = test: MIC in bacterial broth culture (7H9 with ADC, visual or resazurin); format: cell-based; settings: Mycolicibacterium smegmatis, Table 31
[3] = Seven-Day Oral (Gavage) Toxicity and Toxicokinetics Study in Rats; format: in vivo, Crl:CD(SD) rats; settings: male rats
Description: Seven-Day Oral (Gavage) Toxicity and Toxicokinetics Study in Rats
Crl:CD(SD) rats were obtained from Charles River Laboratories of Stone Ridge, N.Y. The animals were laboratory bred and experimentally naïve. Rats were chosen because they are a species that is commonly used for nonclinical toxicity evaluations.
Animals received the test article or vehicle by oral gavage for 7 consecutive days and were terminated the day following completion of dosing. The first day of dosing was designated as Day 1 of the study. The animals were evaluated for changes in clinical signs, body weight, and other parameters as described below.
The vehicle and test article were administered by oral gavage once daily for 7 consecutive days at a dose volume of 10 mL/kg body weight for Group A and Groups B-D, respectively. The test article and vehicle were administered by oral gavage twice daily, approximately 8 hours apart, for 7 consecutive days at a dose volume of 10 mL/kg body weight for Group E and Group F, respectively. The actual volume administered to each animal was calculated and adjusted based on the most recent body weight of each animal.
During the treatment period, daily cageside observations were made and recorded predose and postdose (following the first dose only). The postdosing observations made during treatment occurred at the following times based on Cmax/Tmax for the two compounds from previous studies:
Prior to start of dosing, body weights were measured for randomization on Day 1. During the treatment, body weights were measured on Day 1 and Day 7. In addition, fasted body weights were measured prior to necropsy for calculation of organ/body weight ratios.
Throughout the study, food consumption was measured daily starting 3 days prior to start of dosing.
Blood samples for evaluation of hematology, coagulation, and serum chemistry parameters were collected from all animals from the retro-orbital plexus (under CO2/O2 anesthesia, for the main study animals) or jugular vein cannula (for the toxicokinetic animals) prior to necropsy. Due to residual heparin used to keep the cannulas patent for the toxicokinetic animals, coagulation samples from these rats, were not able to be analyzed. The animals were fasted overnight prior to blood collection. On the day of blood collection for clinical pathology analyses, the animals were not necropsied until after the blood was collected and the samples judged to be acceptable by the clinical pathology group.
On the 1st and 7th day of dosing, blood samples (approximately 0.5 mL/sample) were collected from the jugular vein cannula for all toxicokinetic animals at the timepoints listed below into K3EDTA-containing tubes. […] Prior to each collection, a small sample of blood (with heparin blocking solution) was removed from the cannula and discarded. A new syringe was placed on the cannula, and the protocol-required sample was taken. The syringe with the blood sample was removed, and a new syringe with saline attached to the cannula. Blood volume was replaced with an equal volume of saline and then blocking solution placed in the cannula. Each animal was returned to its cage until the next collection timepoint.
For all animals euthanized at scheduled necropsies, the kidneys, liver, and prostate gland were weighed. Following weighing, an approximate 1 gram sample of liver and kidney was weighed, transferred to Precellys 7 mL CK28 Tissue Homogenizing tubes (Cat. No. 0904-01), snap-frozen, and analyzed.
For all animals scheduled for the terminal necropsy, the kidneys, liver, and prostate were embedded in paraffin, sectioned and stained with hematoxylin and eosin for further examination by light microscopy. For Groups A, D, E, and F only, the remaining tissues listed above were embedded in paraffin, sectioned and stained with hematoxylin and eosin for further examination by light microscopy. […]

[4] = tested on: intracellular M. tuberculosis in THP-1 cells; test: microbe, parasite or virus in culture; format: cell-based; settings: Mycobacterium tuberculosis, H37RA
M. tuberculosis = test: microbe, parasite or virus in culture; format: cell-based; settings: Mycobacterium tuberculosis
[5] = tested on: intracellular M. tuberculosis in J774 cells; test: Efficacy against intracellular M. tuberculosis (luciferase) in J774 cells; format: cell-based; settings: Mycobacterium tuberculosis, J774, 120 h
[6] = 300 mg/kg twice a day vs controls treated twice a day

## CCNC(=O)Nc1nc2cc(-c3cnc(C(C)(C)O)nc3)c(F)c([C@H]3CCCO3)c2[nH]1 [Compound 23A, methanesulfonic acid salt of 1-ethyl-3-[6-fluoro-5-[2-(1-hydroxy-1-methyl-ethyl)pyrimidin-5-yl]-7-[(2R)-tetrahydrofuran-2-yl]-1H-benzimidazol-2-yl]urea]
[1]
  MIC: 0.25 µg/mL
M. tuberculosis Erdman; 4×MIC, one month period of incubation
  killing kinetics (log reduction in CFU): slow killing kinetics
M. tuberculosis Erdman; day 0 of incubation
  Log Reduction (cfu): 0 Log
M. tuberculosis Erdman; day 1 of incubation
  Log Reduction (cfu): 0.2 Log
M. tuberculosis Erdman; day 2 of incubation
  Log Reduction (cfu): 0.2 Log
M. tuberculosis Erdman; day 3 of incubation
  Log Reduction (cfu): 1.0 Log
M. tuberculosis Erdman; day 7 of incubation
  Log Reduction (cfu): 1.9 Log
M. tuberculosis Erdman; day 14 of incubation
  Log Reduction (cfu): 1.9 Log
M. tuberculosis Erdman; day 21 of incubation
  Log Reduction (cfu): 2.2 Log
M. tuberculosis Erdman; day 28 of incubation
  Log Reduction (cfu): 3.0 Log
M. avium; Mycobacterium avium, M. avium 103, read-out: MIC
  MIC: 0.12 µg/mL
M. avium; Mycobacterium avium, M. avium 3404.4, read-out: MIC
  MIC: 0.23 µg/mL
M. avium; Mycobacterium avium, M. avium Far, read-out: MIC
  MIC: 0.23 µg/mL
M. avium; M. avium 103
  MIC: 0.23 µg/mL
[2]
  IC50: 1 µg/mL
M. smegmatis
  MIC: 6.25 µg/mL
[3]; [6]
  AST: statistically higher
  mean ALT: statistically higher
  mean calcium ion concentration (CA): statistically lower
[3]; 7 days oral gavage
  dose levels at which no adverse toxicity was demonstrated: ≤ 600 mg/kg/day
[3]; 7 days oral gavage, all dose groups
  adverse observations or effects on mean body weight: No adverse observations or effects on mean body weight
[3]; any dose regimen
  histopathological findings: No test article-related histopathological findings
[3]; once a day for 7 days orally via gavage
  NOEL (No-Observable-Effect-Level): 100 mg/kg
[3]; toxicokinetics
  exposures for different dosage levels: dose related
[3]; twice daily 300 mg/kg, not considered adverse
  Mean food consumption: reduced
[4]; THP-1, 120 h, read-out: Mtb H37Ra in THP1 Cells (IC50)
  IC50: 0.03 µg/mL
[4]; read-out: MIC, Macrophage Cells
  MIC: 0.03 µg/mL
M. tuberculosis; GN9, Table 31, Mtb GN9, duplicate values, read-out: MIC
  MIC: 0.03 µg/mL
M. tuberculosis; H37RA, read-out: MIC, Broth
  MIC: 0.01 µg/mL
M. tuberculosis; H37RV, Table 33, M. tuberculosis strain H37Rv, read-out: MIC
  MIC: 0.125 µg/mL
M. tuberculosis; Table 32, […], duplicate values, read-out: MIC
  MIC: 0.125 µg/mL
M. tuberculosis; Table 33, M. tuberculosis strain AH13, read-out: MIC
  MIC: 0.5 µg/mL
M. tuberculosis; Table 33, M. tuberculosis strain BW9, read-out: MIC
  MIC: 0.125 µg/mL
M. tuberculosis; Table 33, M. tuberculosis strain H10460, read-out: MIC
  MIC: 0.5 µg/mL
M. tuberculosis; Table 33, M. tuberculosis strain MC19062, read-out: MIC
  MIC: 0.125 µg/mL
M. tuberculosis; Table 33, M. tuberculosis strain W10, read-out: MIC
  MIC: 0.125 µg/mL
[5]; ERDMAN, read-out: Mtb Erdman in J774 Cells (IC50)
  IC50: < 0.17 µg/mL
[5]; H37RV, read-out: Mtb H37Rv in J774 Cells (IC50)
  IC50: 0.21 µg/mL
[5]; read-out: Mtb CDC1551 in J774 Cells (IC50)
  IC50: 0.12 µg/mL
